This is an account of results in US9802898B2, “Phenyl and tertbutylacetic acid substituted pyridinones having anti-HIV effects” (priority 2014, dated 2017).

A word on the IC50: it is the midpoint of a concentration-inhibition curve.

This assay has as its system HIV. Put plainly: MT4 assay, antiviral HIV activity. Format: cell-based. The following applies: Human immunodeficiency virus 1, 96 h, read-out: HIV MT4 Assay IC50. How it is done: Antiviral HIV activity and cytotoxicity values for compounds of the invention from Table 1 were measured in parallel in the HTLV-1 transformed cell line MT-4 based on the method previously described (Hazen et al., 2007, In vitro antiviral activity of the novel, tyrosyl-based human immunodeficiency virus (HIV) type 1 protease inhibitor brecanavir (GW640385) in combination with other antiretrovirals and against a panel of protease inhibitor-resistant HIV (Hazen et al., “In vitro antiviral activity of the novel, tyrosyl-based human immunodeficiency virus (HIV) type 1 protease inhibitor brecanavir (GW640385) in combination with other antiretrovirals and against a panel of protease inhibitor-resistant HIV”, Antimicrob. Agents Chemother. 2007, 51: 3147-3154; and Pauwels et al., “Sensitive and rapid assay on MT-4 cells for the detection of antiviral compounds against the AIDS virus”, J. of Virological Methods 1987, 16: 171-185).
Luciferase activity was measured 96 hours later by adding a cell titer glo (Promega, Madison, Wis.). Percent inhibition of cell protection data was plotted relative to no compound control. Under the same condition, cytotoxicity of the compounds was determined using cell titer Glo™ (Promega, Madison, Wis.). IC50s were determined from a 10 point dose response curve using 3-4-fold serial dilution for each compound, which spans a concentration range >1000 fold.
These values are plotted against the molar compound concentrations using the standard four parameter logistic equation: y=((Vmax*x^n)/(K^n+x^n))+Y2
Y2=minimum y n=slope factor
Vmax=maximum y x=compound concentration [M]

`Cc1ccc(-c2c(C)c(-c3ccc(C)c(C)c3)cc(=O)n2C(CC(C)(C)C)C(=O)O)cc1` (stereo not drawn) [Example 2, 2-(4-(3,4-Dimethylphenyl)-5-methyl-2-oxo-6-(p-tolyl)pyridin-1(2H)-yl)-4,4-dimethylpentanoic acid]: the IC50 was determined as 1090 nM.

Turning to `Cc1ccc(-c2c(C)c(C(=O)NC3CCCCC3)cc(=O)n2C(CC(C)(C)C)C(=O)O)cc1` (stereo not drawn) [Example 7, 2-(4-(cyclohexylcarbamoyl)-5-methyl-2-oxo-6-p-tolylpyridin-1(2H)-yl)-4,4-dimethylpentanoic acid], the half-maximal inhibitory concentration (IC50) is 430 nM.

Take `Cc1ccc(-c2c(C)cc(NS(=O)(=O)CC3CCCCC3)c(=O)n2C(CC(C)(C)C)C(=O)O)cc1` (stereo not drawn) [Example 10, 2-(3-(cyclohexylmethylsulfonamido)-5-methyl-2-oxo-6-(p-tolyl)pyridin-1(2H)-yl)-4,4-dimethylpentanoic acid]: the IC50 was found to be 1560 nM.

With `Cc1ccc(-c2c(C)c(C(=O)NCc3ccccc3)cc(=O)n2C(CC(C)(C)C)C(=O)O)cc1` (stereo not drawn) [Example 9, 2-(4-(benzylcarbamoyl)-5-methyl-2-oxo-6-p-tolylpyridin-1(2H)-yl)-4,4-dimethylpentanoic acid], the IC50 amounted to 3290 nM.

As for `Cc1ccc(-c2c(C)c(C(=O)N[C@H]3CC[C@H](C)CC3)cc(=O)n2C(CC(C)(C)C)C(=O)O)cc1` (stereo partly drawn) [Example 1, 4,4-Dimethyl-2-(5-methyl-4-(((1r,4r)-4-methylcyclohexyl)carbamoyl)-2-oxo-6-(p-tolyl)pyridin-1(2H)-yl)pentanoic acid], the IC50 is 350 nM.

`Cc1ccc(-c2c(C)c(-c3nnc(N[C@H]4CC[C@H](C)CC4)o3)cc(=O)n2C(CC(C)(C)C)C(=O)O)cc1` (stereo partly drawn) [Example 6, 4,4-Dimethyl-2-(5-methyl-4-(5-(((1 r,4r)-4-methylcyclohexyl)amino)-1,3,4-oxadiazol-2-yl)-2-oxo-6-(p-tolyl)pyridin-1(2H)-yl)pentanoic acid]: the IC50 was 5600 nM.

Turning to `Cc1ccc(-c2c(C)cc(NS(C)(=O)=O)c(=O)n2C(CC(C)(C)C)C(=O)O)cc1` (stereo not drawn) [Example 4, 4,4-Dimethyl-2-(5-methyl-3-(methylsulfonamido)-2-oxo-6-(p-tolyl)pyridin-1(2H)-yl)pentanoic acid], the IC50 worked out at 33000 nM.

Turning to `Cc1ccc(-c2c(C)c(-c3ccc(C)c(C)c3)c(NS(C)(=O)=O)c(=O)n2C(CC(C)(C)C)C(=O)O)cc1` (stereo not drawn) [Example 3, 2-(4-(3,4-dimethylphenyl)-5-methyl-3-(methylsulfonamido)-2-oxo-6-(p-tolyl)pyridin-1(2H)-yl)-4,4-dimethylpentanoic acid], the IC50 stood at 310 nM.

For the compound `Cc1ccc(-c2c(C)c(C(=O)NCC3CCCCC3)cc(=O)n2C(CC(C)(C)C)C(=O)O)cc1` (stereo not drawn) [Example 8, 2-(4-(cyclohexylmethylcarbamoyl)-5-methyl-2-oxo-6-p-tolylpyridin-1(2H)-yl)-4,4-dimethylpentanoic acid], the IC50 came to 840 nM.
